Source: patent publication US12319672B2, “Alpha-D-galactopyranoside derivatives” (Idorsia Pharmaceuticals Ltd, priority 2019, dated 2025)

Tests used:
human Gal-1 (hGal-1) = experiment: Competitive binding assay: binding of biotinylated hGal-1 to microplate-adsorbed asialofetuin (ASF); details: Activities on hGal-1; mean values of several measurements
How it was run: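 Spectrophotometric readout (streptavidin-peroxidase, ABTS) of biotinylated galectin retained on ASF-coated wells. Biotinylated hGal-1 or hGal-3, 300-1000 ng/mL, co-incubated with test compound 3 h at 4° C, then washed. Mean IC50 from repeat runs.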

human Gal-3 (hGal-3) = human Gal-3 (hGal-3) (Homo sapiens (Human), UniProt P17931); experiment: Competitive binding assay: binding of biotinylated hGal-3 to microplate-adsorbed asialofetuin (ASF); details: Activity on hGal-3; mean values of several measurements
How it was run: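 Compounds in DMSO dilution series competed with 300-1000 ng/mL biotinylated hGal-3 for asialofetuin adsorbed on the plate (3 h, 4° C). Streptavidin-peroxidase at 80 ng/mL (1 h, 4° C) with ABTS gave a spectrophotometric read-out, and IC50 was reported as the mean of repeat runs.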

Sequence of human Gal-1 (hGal-1) (P09382 2-135 limits assumed): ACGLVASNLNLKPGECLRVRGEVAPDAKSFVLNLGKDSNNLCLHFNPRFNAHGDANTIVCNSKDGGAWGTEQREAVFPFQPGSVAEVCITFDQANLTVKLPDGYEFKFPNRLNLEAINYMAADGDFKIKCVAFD
Sequence of human Gal-3 (hGal-3) (P17931 whole entry): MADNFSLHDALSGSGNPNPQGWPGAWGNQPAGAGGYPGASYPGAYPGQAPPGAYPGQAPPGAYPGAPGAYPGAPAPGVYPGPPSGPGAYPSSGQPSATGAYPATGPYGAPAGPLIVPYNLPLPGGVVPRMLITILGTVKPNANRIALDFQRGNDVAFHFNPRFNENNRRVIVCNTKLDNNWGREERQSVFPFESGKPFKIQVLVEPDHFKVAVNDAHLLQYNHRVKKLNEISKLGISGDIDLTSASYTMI

Row | Structure (SMILES) | IC50 (human Gal-1 (hGal-1)) | IC50 (human Gal-3 (hGal-3))
1 | CC(C)(C)c1cc(C[C@H]2O[C@H](CO)[C@H](O)[C@H](n3cc(-c4cc(F)c(F)c(F)c4)nn3)[C@H]2O)on1 [Example 2.48, (2R,3R,4R,5R,6R)-2-((3-(tert-butyl)isoxazol-5-yl)methyl)-6-(hydroxymethyl)-4-(4-(3,4,5-trifluorophenyl)-1H-1,2,3-triazol-1-yl)tetrahydro-2H-pyran-3,5-diol] | 1040 nM | 98 nM
2 | OC[C@H]1O[C@H](CC2CC(c3cc(Cl)ccc3Cl)=NO2)[C@H](O)[C@@H](n2cc(-c3cc(F)c(F)c(F)c3)nn2)[C@H]1O (some centres unmarked) [Ex 1.295] | 17100 nM | 1800 nM
3 | CO[C@@H]1[C@@H](n2cc(-c3cc(F)cc(Cl)c3)nn2)[C@@H](O)[C@@H](CO)O[C@@H]1Cc1cc(C2CCN(S(C)(=O)=O)CC2)on1 [Ex 1.160] | 730 nM | 78 nM
4 | CO[C@@H]1[C@@H](n2cc(-c3cc(F)c(C)c(F)c3)nn2)[C@@H](O)[C@@H](CO)O[C@@H]1Cc1cc(C2CCN(C(C)=O)CC2)on1 [Ex 1.161] | 1660 nM | 34 nM
5 | CO[C@@H]1[C@@H](n2cc(-c3cc(F)c(F)c(F)c3)nn2)[C@@H](O)[C@@H](CO)O[C@@H]1Cc1cc(C2CCN(S(=O)(=NC(C)C)C(C)C)CC2)on1 (some centres unmarked) [Ex 1.197] | 2190 nM | 110 nM
6 | CC(C)(C)c1cc(C[C@H]2O[C@H](CO)[C@H](O)[C@H](n3cc(-c4cc(F)c(F)c(F)c4)nn3)[C@H]2OCC(=O)N2CCC(O)CC2)no1 [Example 2.41, 2-(((2R,3R,4S,5R,6R)-2-((5-(tert-butyl)isoxazol-3-yl)methyl)-5-hydroxy-6-(hydroxymethyl)-4-(4-(3,4,5-trifluorophenyl)-1H-1,2,3-triazol-1-yl)tetrahydro-2H-pyran-3-yl)oxy)-1-(4-hydroxypiperidin-1-yl)ethan-1-one] | 5840 nM | 100 nM
7 | CC(C)(C)OC(=O)N1CCC(C2=NOC(C[C@H]3O[C@H](CO)[C@H](O)[C@H](n4cc(-c5cc(F)c(F)c(F)c5)nn4)[C@H]3OCC(=O)N3CCOCC3)C2)CC1 (mixture of isomers) [Example 2.36, tert-butyl 4-((RS)-5-(((2R,3R,4S,5R,6R)-5-hydroxy-6-(hydroxymethyl)-3-(2-morpholino-2-oxoethoxy)-4-(4-(3,4,5-trifluorophenyl)-1H-1,2,3-triazol-1-yl)tetrahydro-2H-pyran-2-yl)methyl)-4,5-dihydroisoxazol-3-yl)piperidine-1-carboxylate] | 2770 nM | 120 nM
8 | Cc1ccc(-c2cn([C@H]3[C@@H](O)[C@@H](CO)O[C@H](Cc4cc(C(C)(C)CO)no4)[C@@H]3O)nn2)c(F)c1F [Ex 1.334] | 3310 nM | 24 nM
9 | OC[C@H]1O[C@H](CC2CC(c3ccc4[nH]ncc4c3)=NO2)[C@H](O)[C@@H](n2cc(-c3cc(F)c(F)c(F)c3)nn2)[C@H]1O (some centres unmarked) [Ex 1.34] | 10600 nM | 880 nM
10 | O=c1[nH]c2ccc(C3=NO[C@@H](C[C@H]4O[C@H](CO)[C@H](O)[C@H](n5cc(-c6cc(F)c(F)c(F)c6)nn5)[C@H]4O)C3)cc2o1 [Ex 1.31] | 13500 nM | 1130 nM
11 | CO[C@@H]1[C@@H](n2cc(-c3ccc(C)c(F)c3F)nn2)[C@@H](O)[C@@H](CO)O[C@@H]1Cc1cc(C2CCC2O)on1 (some centres unmarked) [Ex 1.346] | 11700 nM | 100 nM
12 | CO[C@@H]1[C@@H](n2cc(-c3ccc(C)c(F)c3)nn2)[C@@H](O)[C@@H](CO)O[C@@H]1Cc1cc(C2CCN(C(C)=O)CC2)on1 [Ex 1.162] | 740 nM | 37 nM
13 | CO[C@@H]1[C@@H](n2cc(-c3cc(F)cc(Cl)c3)nn2)[C@@H](O)[C@@H](CO)O[C@@H]1Cc1cc(C2CCCCC2)on1 [Ex 1.178] | 10300 nM | 980 nM
14 | OC[C@H]1O[C@H](Cc2cc(C3(O)COC3)on2)[C@H](O)[C@@H](n2cc(-c3cc(F)c(F)c(F)c3)nn2)[C@H]1O [Ex 1.59] | 6310 nM | 400 nM
15 | CO[C@@H]1[C@@H](n2cc(-c3cc(F)c(C)c(F)c3)nn2)[C@@H](O)[C@@H](CO)O[C@@H]1CC1CC(C2CCN(C(=O)OC(C)(C)C)CC2)=NO1 (some centres unmarked) [Ex 1.135] | 9000 nM | 100 nM
16 | CO[C@@H]1[C@@H](n2cc(-c3ccc(Br)c(F)c3F)nn2)[C@@H](O)[C@@H](CO)O[C@@H]1CC1CC(C2CCNCC2)=NO1 (some centres unmarked) [Ex 1.142] | 1320 nM | 71 nM
17 | CC(C)(C)c1cc(C[C@H]2O[C@H](CO)[C@H](O)[C@H](n3cc(-c4ccc(F)c(F)c4F)nn3)[C@H]2OCC(=O)O)on1 [Example 2.43, 2-(((2R,3R,4S,5R,6R)-2-((3-(tert-butyl)isoxazol-5-yl)methyl)-5-hydroxy-6-(hydroxymethyl)-4-(4-(2,3,4-trifluorophenyl)-1H-1,2,3-triazol-1-yl)tetrahydro-2H-pyran-3-yl)oxy)acetic acid] | 550 nM | 47 nM
18 | CO[C@@H]1[C@@H](n2cc(-c3cc(F)c(F)c(F)c3)nn2)[C@@H](O)[C@@H](CO)O[C@@H]1Cc1cc(C2(C(F)F)CC2)no1 [Ex 1.214] | 920 nM | 130 nM
19 | CO[C@@H]1[C@@H](n2cc(-c3cc(F)c(F)c(F)c3)nn2)[C@@H](O)[C@@H](CO)O[C@@H]1Cc1cc(C2(O)COC2)on1 [Ex 1.69] | 6730 nM | 450 nM
20 | CO[C@@H]1[C@@H](n2cc(-c3cc(F)c(F)c(F)c3)nn2)[C@@H](O)[C@@H](CO)O[C@@H]1Cc1cc(C2CCCC2)on1 [Ex 1.71] | 5260 nM | 230 nM
21 | CO[C@@H]1[C@@H](n2cc(-c3cc(F)c(F)c(F)c3)nn2)[C@@H](O)[C@@H](CO)O[C@@H]1CC1CC(C2CCOCC2)=NO1 (some centres unmarked) [Ex 1.19] | 5580 nM | 530 nM

More lines, now with the values ahead:

Row | IC50 (human Gal-1 (hGal-1)) | IC50 (human Gal-3 (hGal-3)) | Structure (SMILES)
22 | 270 nM | 96 nM | CO[C@@H]1[C@@H](n2cc(-c3cc(F)c(F)c(F)c3)nn2)[C@@H](O)[C@@H](CO)O[C@@H]1C[C@H]1CN(C2CCN(C(C)=O)CC2)C(=O)O1 [Example 5.06, (S)-3-(1-acetylpiperidin-4-yl)-5-(((2R,3R,4S,5R,6R)-5-hydroxy-6-(hydroxymethyl)-3-methoxy-4-(4-(3,4,5-trifluorophenyl)-1H-1,2,3-triazol-1-yl)tetrahydro-2H-pyran-2-yl)methyl)oxazolidin-2-one]
23 | 8680 nM | 350 nM | CO[C@@H]1[C@@H](n2cc(-c3cc(F)c(F)c(F)c3)nn2)[C@@H](O)[C@@H](CO)O[C@@H]1C[C@@H]1CN(C2CCN([S@+]([O-])C(C)(C)C)CC2)C(=O)O1 (mixture of isomers) [Example 5.21, (RS)-3-((RS)-1-(tert-butylsulfinyl)piperidin-4-yl)-5-(((2R,3R,4S,5R,6R)-5-hydroxy-6-(hydroxymethyl)-3-methoxy-4-(4-(3,4,5-trifluorophenyl)-1H-1,2,3-triazol-1-yl)tetrahydro-2H-pyran-2-yl)methyl)oxazolidin-2-one]
24 | 1760 nM | 76 nM | CO[C@@H]1[C@@H](n2cc(-c3cc(F)c(F)c(F)c3)nn2)[C@@H](O)[C@@H](CO)O[C@@H]1Cc1cn(C2CCOCC2)nn1 [Example 4.03, (2R,3R,4S,5R,6R)-2-(hydroxymethyl)-5-methoxy-6-((1-(tetrahydro-2H-pyran-4-yl)-1H-1,2,3-triazol-4-yl)methyl)-4-(4-(3,4,5-trifluorophenyl)-1H-1,2,3-triazol-1-yl)tetrahydro-2H-pyran-3-ol]
25 | 670 nM | 35 nM | CO[C@@H]1[C@@H](n2cc(-c3cc(F)c(F)c(F)c3)nn2)[C@@H](O)[C@@H](CO)O[C@@H]1Cc1cn(C2CCS(=O)(=O)CC2)nn1 [Example 4.16, 4-(4-(((2R,3R,4S,5R,6R)-5-hydroxy-6-(hydroxymethyl)-3-methoxy-4-(4-(3,4,5-trifluorophenyl)-1H-1,2,3-triazol-1-yl)tetrahydro-2H-pyran-2-yl)methyl)-1H-1,2,3-triazol-1-yl)tetrahydro-2H-thiopyran 1,1-dioxide]
26 | 230 nM | 31 nM | CO[C@@H]1[C@@H](n2cc(-c3cc(F)c(F)c(F)c3)nn2)[C@@H](O)[C@@H](CO)O[C@@H]1Cc1cc(C2CCN(C(=O)NC(C)(C)C)CC2)on1 [Example 3.52, N-(tert-butyl)-4-(3-(((2R,3R,4S,5R,6R)-5-hydroxy-6-(hydroxymethyl)-3-methoxy-4-(4-(3,4,5-trifluorophenyl)-1H-1,2,3-triazol-1-yl)tetrahydro-2H-pyran-2-yl)methyl)isoxazol-5-yl)piperidine-1-carboxamide]
27 | 580 nM | 44 nM | CCCS(=O)(=O)N1CCC(c2cc(C[C@H]3O[C@H](CO)[C@H](O)[C@H](n4cc(-c5cc(F)c(F)c(F)c5)nn4)[C@H]3OC)no2)CC1 [Example 3.46, (2R,3R,4S,5R,6R)-2-(hydroxymethyl)-5-methoxy-6-((5-(1-(propylsulfonyl)piperidin-4-yl)isoxazol-3-yl)methyl)-4-(4-(3,4,5-trifluorophenyl)-1H-1,2,3-triazol-1-yl)tetrahydro-2H-pyran-3-ol]
28 | 340 nM | 17 nM | CO[C@@H]1[C@@H](n2cc(-c3cc(F)c(F)c(F)c3)nn2)[C@@H](O)[C@@H](CO)O[C@@H]1Cc1cn(C2CCN(C(=O)OCc3ccccc3)CC2)nn1 [Example 4.13, benzyl 4-(4-(((2R,3R,4S,5R,6R)-5-hydroxy-6-(hydroxymethyl)-3-methoxy-4-(4-(3,4,5-trifluorophenyl)-1H-1,2,3-triazol-1-yl)tetrahydro-2H-pyran-2-yl)methyl)-1H-1,2,3-triazol-1-yl)piperidine-1-carboxylate]
